Reference: ChEMBL document CHEMBL1154015, “Structural and theoretical studies of [6-bromo-1-(4-fluorophenylmethyl)-4(1H)-quinolinon-3-yl)]-4-hydroxy-2-oxo-3-butenoïc acid as HIV-1 integrase inhibitor” (Bioorg Med Chem Lett, 2009)

What was measured:
[1] = molecular target: T1, Human immunodeficiency virus type 1 integrase (Human immunodeficiency virus 1, UniProt Q7ZJM1); assay: Inhibition of HIV1 integrase 3'-processing activity expressed in Escherichia coli BL21 (DE3) by gel based assay in presence of magnesium
T1 sequence (Q7ZJM1 whole entry): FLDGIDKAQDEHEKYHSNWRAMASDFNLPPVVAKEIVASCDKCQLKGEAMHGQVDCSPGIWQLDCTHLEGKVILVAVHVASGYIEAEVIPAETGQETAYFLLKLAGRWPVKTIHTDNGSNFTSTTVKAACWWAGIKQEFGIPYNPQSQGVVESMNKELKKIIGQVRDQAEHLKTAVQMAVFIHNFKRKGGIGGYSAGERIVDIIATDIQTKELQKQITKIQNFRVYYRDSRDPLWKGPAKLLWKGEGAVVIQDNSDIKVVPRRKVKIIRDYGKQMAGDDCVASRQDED

[2] = Selectivity index, ratio of CC50 for human TZM-bl cells to EC50 for HIV1 NL4-3; type: toxicity, cell-based; settings: read-out: Ratio CC50/EC50
[3] = system: Human immunodeficiency virus 1; assay: Antiviral activity against HIV1 NL4-3 infected in human TZM-bl cells treated 4 hrs before infection measured after 48 hrs postinfection by beta-D-galactopyranoside assay; type: functional, organism-based; settings: Human immunodeficiency virus 1, NL4-3, TZM-bl
[4] = molecular target: T1, Human immunodeficiency virus type 1 integrase; assay: Inhibition of HIV1 integrase strand transfer activity expressed in Escherichia coli BL21 (DE3) by gel based assay in presence of magnesium
[5] = Cytotoxicity against HIV1 NL4-3 infected human TZM-bl cells assessed as reduction in cell viability after 3 days by WST1 assay; type: cell-based; settings: HIV1 NL4-3 infected TZM-bl cells

| SMILES | IC50 [1] [µM] | selectivity ratio [2] | EC50 [3] [µM] | IC50 [4] [µM] | CC50 at 72 h [5] [µM] |
| --- | --- | --- | --- | --- | --- |
| O=C(O)C(=O)CC(=O)c1cn(Cc2ccc(F)cc2)c2ccc(Br)cc2c1=O | 1.6 | > 250 | 4 | 0.03 | > 1000 |
| CCOC(=O)C(=O)CC(=O)c1cn(Cc2ccc(F)cc2)c2ccc(Br)cc2c1=O | 78 | > 59 | 17 | 0.12 | > 1000 |
